In US11208412B2 (DAEGU-GYEONGBUK MEDICAL INNOVATION FOUNDATION, priority 2017, dated 2021):
Read-outs that look alike come from different tables or passages of the source.

Columns and labels:
Test in all cases: Kinase selectivity, DiscoverX scanMAX Kinase assay panel (% control)
Type in all cases: binding
[1] = target: T1, kinases of the scanMAX Kinase assay panel (Homo sapiens, UniProt P00519, E255K); conditions: ABL1(E255K)-phosphorylated; 1 uM
T1 construct: purchased DiscoverX Co. (contract measurement) scanMAX Kinase assay panel
How it was run: (§1)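 A 1 uM DMSO solution of compound was applied across the panel kinases, and results were expressed as % control relative to DMSO (100%) and a positive control (0%).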

[2] = target: T2, kinases of the scanMAX Kinase assay panel (Homo sapiens, UniProt P07949, M918T); conditions: kinase RET(M918T); 1 uM in DMSO
T2 construct: purchased DiscoverX Co. (contract measurement) scanMAX Kinase assay panel
T2 sequence (P07949 29-1114 M918T): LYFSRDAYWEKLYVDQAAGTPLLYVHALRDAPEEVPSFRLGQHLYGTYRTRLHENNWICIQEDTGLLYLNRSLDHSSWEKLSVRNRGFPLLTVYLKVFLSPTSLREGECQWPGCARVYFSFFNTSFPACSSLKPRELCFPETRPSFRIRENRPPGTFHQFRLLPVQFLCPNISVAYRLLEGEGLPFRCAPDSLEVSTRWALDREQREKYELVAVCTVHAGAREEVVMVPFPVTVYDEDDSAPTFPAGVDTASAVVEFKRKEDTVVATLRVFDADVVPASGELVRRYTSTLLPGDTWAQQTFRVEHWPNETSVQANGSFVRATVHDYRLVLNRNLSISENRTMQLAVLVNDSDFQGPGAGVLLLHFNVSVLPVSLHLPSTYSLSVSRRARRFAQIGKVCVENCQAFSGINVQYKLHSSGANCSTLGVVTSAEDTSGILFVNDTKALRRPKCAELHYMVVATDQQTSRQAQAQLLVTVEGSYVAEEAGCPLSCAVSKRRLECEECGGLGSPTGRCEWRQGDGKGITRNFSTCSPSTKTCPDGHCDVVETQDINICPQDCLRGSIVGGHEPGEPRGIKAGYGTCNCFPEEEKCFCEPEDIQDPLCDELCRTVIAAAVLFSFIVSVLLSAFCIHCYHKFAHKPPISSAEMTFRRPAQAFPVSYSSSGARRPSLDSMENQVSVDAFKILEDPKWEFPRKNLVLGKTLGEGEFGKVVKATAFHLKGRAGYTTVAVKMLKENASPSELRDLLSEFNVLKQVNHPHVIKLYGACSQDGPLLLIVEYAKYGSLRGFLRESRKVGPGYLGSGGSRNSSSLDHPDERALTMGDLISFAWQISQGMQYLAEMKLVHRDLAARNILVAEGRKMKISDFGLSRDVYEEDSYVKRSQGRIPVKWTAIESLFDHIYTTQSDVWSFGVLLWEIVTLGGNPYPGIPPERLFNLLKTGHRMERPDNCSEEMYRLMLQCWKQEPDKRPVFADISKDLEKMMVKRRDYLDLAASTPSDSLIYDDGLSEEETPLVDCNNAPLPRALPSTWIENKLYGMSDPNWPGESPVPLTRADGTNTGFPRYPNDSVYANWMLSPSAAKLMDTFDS
How it was run: as §1

[3] = target: T3, kinases of the scanMAX Kinase assay panel (Homo sapiens, UniProt P22607); conditions: FGFR3; 1 uM
T3 construct: purchased DiscoverX Co. (contract measurement) scanMAX Kinase assay panel
T3 sequence (P22607 23-806): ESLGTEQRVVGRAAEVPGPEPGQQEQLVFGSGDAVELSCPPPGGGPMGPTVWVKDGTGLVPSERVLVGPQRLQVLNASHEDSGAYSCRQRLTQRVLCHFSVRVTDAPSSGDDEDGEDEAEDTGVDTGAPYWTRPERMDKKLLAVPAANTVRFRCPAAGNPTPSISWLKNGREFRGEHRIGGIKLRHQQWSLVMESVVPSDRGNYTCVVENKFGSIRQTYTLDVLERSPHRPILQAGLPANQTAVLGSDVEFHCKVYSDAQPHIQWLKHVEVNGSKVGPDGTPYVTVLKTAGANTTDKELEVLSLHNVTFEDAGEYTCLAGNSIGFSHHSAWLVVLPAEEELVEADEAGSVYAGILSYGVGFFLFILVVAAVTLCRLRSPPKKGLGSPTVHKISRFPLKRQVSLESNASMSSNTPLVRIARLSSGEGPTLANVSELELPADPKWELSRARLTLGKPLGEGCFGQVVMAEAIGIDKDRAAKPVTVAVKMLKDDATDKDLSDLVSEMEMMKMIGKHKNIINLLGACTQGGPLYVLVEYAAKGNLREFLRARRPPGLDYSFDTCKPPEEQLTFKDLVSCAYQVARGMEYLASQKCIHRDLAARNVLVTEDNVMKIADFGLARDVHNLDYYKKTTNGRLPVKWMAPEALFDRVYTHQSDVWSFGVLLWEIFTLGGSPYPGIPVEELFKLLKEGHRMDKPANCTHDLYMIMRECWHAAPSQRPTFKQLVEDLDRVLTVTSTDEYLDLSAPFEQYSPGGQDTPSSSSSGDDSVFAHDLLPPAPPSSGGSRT
How it was run: as §1

[4] = target: T4, kinases of the scanMAX Kinase assay panel (Homo sapiens, UniProt P36888, N841I); conditions: FLT3(N841I); 1 uM
T4 construct: purchased DiscoverX Co. (contract measurement) scanMAX Kinase assay panel
T4 sequence (P36888 27-993 N841I): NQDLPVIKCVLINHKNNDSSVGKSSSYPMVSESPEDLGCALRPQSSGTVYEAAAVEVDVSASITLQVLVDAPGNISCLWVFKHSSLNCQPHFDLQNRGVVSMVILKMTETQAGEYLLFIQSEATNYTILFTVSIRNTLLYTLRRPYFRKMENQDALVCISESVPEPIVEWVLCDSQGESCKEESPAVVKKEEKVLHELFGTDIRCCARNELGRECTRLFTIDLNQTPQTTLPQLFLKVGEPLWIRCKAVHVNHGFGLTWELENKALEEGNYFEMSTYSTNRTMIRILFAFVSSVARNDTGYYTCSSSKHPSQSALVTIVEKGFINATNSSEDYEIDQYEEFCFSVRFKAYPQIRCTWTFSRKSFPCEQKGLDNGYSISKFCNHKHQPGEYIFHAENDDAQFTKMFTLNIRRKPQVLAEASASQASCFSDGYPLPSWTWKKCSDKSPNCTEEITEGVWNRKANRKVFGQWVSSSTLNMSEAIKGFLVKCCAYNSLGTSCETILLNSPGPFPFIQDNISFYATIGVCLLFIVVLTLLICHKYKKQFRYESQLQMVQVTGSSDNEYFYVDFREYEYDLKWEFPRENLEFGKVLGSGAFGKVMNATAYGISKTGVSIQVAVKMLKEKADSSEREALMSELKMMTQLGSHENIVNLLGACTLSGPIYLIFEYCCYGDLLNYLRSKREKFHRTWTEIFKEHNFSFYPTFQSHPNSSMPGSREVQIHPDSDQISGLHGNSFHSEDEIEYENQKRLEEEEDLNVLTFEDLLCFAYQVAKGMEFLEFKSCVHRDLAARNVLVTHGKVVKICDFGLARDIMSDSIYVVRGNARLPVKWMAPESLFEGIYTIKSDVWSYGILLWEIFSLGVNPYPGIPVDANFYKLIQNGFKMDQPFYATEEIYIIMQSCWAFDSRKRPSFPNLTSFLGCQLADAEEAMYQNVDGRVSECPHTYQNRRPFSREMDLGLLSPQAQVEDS
How it was run: as §1

[5] = target: T5, kinases of the scanMAX Kinase assay panel (Homo sapiens, UniProt P41240); conditions: CSK; 1 uM
T5 construct: purchased DiscoverX Co. (contract measurement) scanMAX Kinase assay panel
How it was run: as §1

[6] = target: T6, kinases of the scanMAX Kinase assay panel (Homo sapiens, UniProt P42681); conditions: kinase TXK; 1 uM in DMSO
T6 construct: purchased DiscoverX Co. (contract measurement) scanMAX Kinase assay panel
T6 sequence (P42681 1-527): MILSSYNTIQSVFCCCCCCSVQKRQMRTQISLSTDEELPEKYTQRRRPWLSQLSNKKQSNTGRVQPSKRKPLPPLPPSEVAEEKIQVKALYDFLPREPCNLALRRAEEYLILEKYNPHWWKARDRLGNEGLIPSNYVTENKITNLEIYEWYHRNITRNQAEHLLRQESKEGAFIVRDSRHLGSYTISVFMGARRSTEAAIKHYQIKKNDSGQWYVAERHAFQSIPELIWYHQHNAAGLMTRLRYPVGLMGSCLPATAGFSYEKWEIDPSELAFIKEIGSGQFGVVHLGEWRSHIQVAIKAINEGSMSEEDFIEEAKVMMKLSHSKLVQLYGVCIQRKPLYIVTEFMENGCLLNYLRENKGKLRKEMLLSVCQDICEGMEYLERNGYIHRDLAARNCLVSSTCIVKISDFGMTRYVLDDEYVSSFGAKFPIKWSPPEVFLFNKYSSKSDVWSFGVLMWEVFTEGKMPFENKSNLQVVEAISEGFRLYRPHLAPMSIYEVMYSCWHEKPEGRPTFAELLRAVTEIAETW
How it was run: as §1

[7] = target: T7, kinases of the scanMAX Kinase assay panel (Homo sapiens, UniProt P53671); conditions: LIMK2; 1 uM
T7 construct: purchased DiscoverX Co. (contract measurement) scanMAX Kinase assay panel
T7 sequence (P53671 whole entry): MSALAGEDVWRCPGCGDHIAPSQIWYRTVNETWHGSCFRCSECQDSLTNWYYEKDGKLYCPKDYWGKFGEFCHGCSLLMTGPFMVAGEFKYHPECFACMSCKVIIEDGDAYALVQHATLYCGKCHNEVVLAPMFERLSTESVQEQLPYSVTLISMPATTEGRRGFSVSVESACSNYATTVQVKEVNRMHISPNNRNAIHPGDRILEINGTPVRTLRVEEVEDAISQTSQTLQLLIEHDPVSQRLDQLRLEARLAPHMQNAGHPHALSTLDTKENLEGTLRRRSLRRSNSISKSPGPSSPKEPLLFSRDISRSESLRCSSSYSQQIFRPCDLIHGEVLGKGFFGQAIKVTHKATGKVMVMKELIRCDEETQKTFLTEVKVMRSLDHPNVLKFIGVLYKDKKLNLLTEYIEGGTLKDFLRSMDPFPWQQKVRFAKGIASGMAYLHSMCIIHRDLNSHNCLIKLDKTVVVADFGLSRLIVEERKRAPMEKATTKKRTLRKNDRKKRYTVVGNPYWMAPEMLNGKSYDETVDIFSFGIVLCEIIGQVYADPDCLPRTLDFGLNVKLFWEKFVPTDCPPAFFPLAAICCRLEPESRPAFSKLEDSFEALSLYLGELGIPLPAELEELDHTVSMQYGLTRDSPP
How it was run: as §1

[8] = target: T8, kinases of the scanMAX Kinase assay panel (Homo sapiens, UniProt P68400); conditions: CSNK2A1; 1 uM
T8 construct: purchased DiscoverX Co. (contract measurement) scanMAX Kinase assay panel
T8 sequence (P68400 whole entry): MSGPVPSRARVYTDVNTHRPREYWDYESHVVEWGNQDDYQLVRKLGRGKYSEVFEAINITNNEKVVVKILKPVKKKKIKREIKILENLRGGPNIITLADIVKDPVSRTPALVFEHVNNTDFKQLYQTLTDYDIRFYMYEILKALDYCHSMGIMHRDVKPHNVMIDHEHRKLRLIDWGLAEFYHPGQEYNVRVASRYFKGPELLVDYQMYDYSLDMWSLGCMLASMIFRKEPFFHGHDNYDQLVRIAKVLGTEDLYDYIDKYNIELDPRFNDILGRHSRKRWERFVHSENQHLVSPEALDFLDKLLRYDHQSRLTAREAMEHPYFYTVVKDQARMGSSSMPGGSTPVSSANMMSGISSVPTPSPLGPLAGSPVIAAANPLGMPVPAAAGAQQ
How it was run: as §1

[9] = target: T9, kinases of the scanMAX Kinase assay panel (Homo sapiens, UniProt Q15418); conditions: 1 uM in DMSO
T9 construct: purchased DiscoverX Co. (contract measurement) scanMAX Kinase assay panel
How it was run: as §1

[10] = target: T10, kinases of the scanMAX Kinase assay panel (Homo sapiens, UniProt Q5VT25); conditions: MRCKA; 1 uM
T10 construct: purchased DiscoverX Co. (contract measurement) scanMAX Kinase assay panel
T10 sequence (Q5VT25 whole entry): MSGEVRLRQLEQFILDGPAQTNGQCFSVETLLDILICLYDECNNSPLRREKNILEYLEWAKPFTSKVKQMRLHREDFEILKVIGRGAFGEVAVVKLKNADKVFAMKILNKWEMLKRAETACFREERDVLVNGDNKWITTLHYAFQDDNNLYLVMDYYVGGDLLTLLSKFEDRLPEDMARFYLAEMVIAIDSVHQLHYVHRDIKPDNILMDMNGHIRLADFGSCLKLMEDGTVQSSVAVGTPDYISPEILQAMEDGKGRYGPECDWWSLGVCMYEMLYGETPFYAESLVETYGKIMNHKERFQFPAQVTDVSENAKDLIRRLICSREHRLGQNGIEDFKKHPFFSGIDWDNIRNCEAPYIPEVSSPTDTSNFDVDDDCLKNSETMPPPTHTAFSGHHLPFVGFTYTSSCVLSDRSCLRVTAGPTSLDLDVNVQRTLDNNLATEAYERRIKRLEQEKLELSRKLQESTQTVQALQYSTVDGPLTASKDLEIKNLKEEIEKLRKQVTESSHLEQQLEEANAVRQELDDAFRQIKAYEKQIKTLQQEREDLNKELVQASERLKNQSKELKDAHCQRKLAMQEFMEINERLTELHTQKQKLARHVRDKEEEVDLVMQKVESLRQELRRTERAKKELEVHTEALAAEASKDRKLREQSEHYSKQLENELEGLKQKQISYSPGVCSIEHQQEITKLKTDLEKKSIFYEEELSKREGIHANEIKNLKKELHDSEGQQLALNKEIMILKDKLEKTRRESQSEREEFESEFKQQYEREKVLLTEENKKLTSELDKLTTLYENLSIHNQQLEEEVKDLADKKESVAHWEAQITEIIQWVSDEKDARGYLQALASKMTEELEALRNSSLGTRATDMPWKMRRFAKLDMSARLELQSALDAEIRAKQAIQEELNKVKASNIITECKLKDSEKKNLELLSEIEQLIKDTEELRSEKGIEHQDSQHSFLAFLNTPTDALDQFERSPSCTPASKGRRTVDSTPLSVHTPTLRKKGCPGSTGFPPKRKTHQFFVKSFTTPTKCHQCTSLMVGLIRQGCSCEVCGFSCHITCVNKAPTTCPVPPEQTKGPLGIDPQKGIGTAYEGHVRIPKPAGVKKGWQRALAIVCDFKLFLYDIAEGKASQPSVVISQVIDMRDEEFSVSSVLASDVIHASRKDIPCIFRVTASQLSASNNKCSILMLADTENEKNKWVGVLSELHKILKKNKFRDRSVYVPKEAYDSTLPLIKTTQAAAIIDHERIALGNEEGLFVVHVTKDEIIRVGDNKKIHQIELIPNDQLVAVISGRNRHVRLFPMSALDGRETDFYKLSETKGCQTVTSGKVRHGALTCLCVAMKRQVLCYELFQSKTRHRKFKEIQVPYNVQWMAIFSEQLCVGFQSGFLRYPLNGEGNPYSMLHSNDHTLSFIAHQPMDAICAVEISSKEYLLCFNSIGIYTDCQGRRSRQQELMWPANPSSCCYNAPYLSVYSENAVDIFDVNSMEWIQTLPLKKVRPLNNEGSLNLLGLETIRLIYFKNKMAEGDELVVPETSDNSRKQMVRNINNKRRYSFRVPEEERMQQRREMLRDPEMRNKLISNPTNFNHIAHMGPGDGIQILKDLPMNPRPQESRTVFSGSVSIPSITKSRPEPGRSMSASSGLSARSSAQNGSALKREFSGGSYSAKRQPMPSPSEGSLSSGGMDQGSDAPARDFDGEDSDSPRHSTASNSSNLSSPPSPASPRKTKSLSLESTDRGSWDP
How it was run: as §1

[11] = target: T11, kinases of the scanMAX Kinase assay panel (Homo sapiens, UniProt Q9Y2H1); conditions: NDR2; 1 uM
T11 construct: purchased DiscoverX Co. (contract measurement) scanMAX Kinase assay panel
T11 sequence (Q9Y2H1 whole entry): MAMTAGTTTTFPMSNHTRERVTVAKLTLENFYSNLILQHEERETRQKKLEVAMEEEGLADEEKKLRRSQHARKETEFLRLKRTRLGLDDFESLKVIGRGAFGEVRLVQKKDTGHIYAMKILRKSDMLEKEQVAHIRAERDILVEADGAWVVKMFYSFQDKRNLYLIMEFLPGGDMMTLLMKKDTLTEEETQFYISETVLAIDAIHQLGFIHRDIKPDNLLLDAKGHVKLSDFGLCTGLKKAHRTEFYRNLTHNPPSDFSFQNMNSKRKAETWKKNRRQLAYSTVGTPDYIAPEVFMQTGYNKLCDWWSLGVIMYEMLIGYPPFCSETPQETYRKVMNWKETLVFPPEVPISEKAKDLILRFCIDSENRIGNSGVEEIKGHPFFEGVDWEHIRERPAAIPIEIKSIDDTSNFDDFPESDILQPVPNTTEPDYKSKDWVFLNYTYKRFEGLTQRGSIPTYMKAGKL
How it was run: as §1

[12] = kinase RSK1(Kin.Dom.1-N-terminal), read-out: % control, RSK1(Kin.Dom.1-N-terminal)
[13] = kinase RSK1(Kin.Dom.2-C-terminal), read-out: % control, RSK1(Kin.Dom.2-C-terminal)

SMILES | remaining binding at 1 µM [1] [%] | remaining binding at 1 µM [2] [%] | remaining binding at 1 µM [3] [%] | remaining binding at 1 µM [4] [%] | remaining binding at 1 µM [5] [%] | remaining binding at 1 µM [6] [%] | remaining binding at 1 µM [7] [%] | remaining binding at 1 µM [8] [%] | remaining binding at 1 µM [9, 12] [%] | remaining binding at 1 µM [9, 13] [%] | remaining binding at 1 µM [10] [%] | remaining binding at 1 µM [11] [%]
CCNc1nc(Nc2ccc(C(=O)N3CCC(N4CCOCC4)CC3)cc2OC)nc2[nH]cc(C(F)(F)F)c12 [Example 104, (4-((4-(ethylamino)-5-(trifluoromethyl)-7H-pyrrolo[2,3-d]pyrimidine-2-yl)amino)-3-methoxyphenyl)(4-morpholinopiperidine-1-yl)methanone] | 100 | 96 | 100 | 51 | 85 | 100 | 99 | 73 | 89 | 61 | 100 | 100
CC1(Nc2nc(Nc3cnn([C@H]4CCN(C5COC5)C[C@@H]4F)c3Cl)nc3[nH]cc(C#N)c23)CC1 [Example 52, 2-((5-chloro-1-((3S,4S)-3-fluoro-1-(oxetane-3-yl)piperidine-4-yl)-1H-pyrazole-4-yl)amino)((1-methylcyclopropyl)amino)-7H-pyrrolo[2,3-d]pyrimidine-5-carbonitrile] | 0.6 | 0 | 9.8 | 0 | 33 | 40 | 65 | 24 | 2.4 | 52 | 100 | 31
CNc1nc(Nc2ccc(C(=O)N3CCOCC3)cc2OC)nc2[nH]cc(C#N)c12 [Example 1, 2-((2-methoxy-4-(morpholine-4-carbonyl)phenyl)amino)-4-(methylamino)-7H-pyrrolo[2,3-d]pyrimidine-5-carbonitrile] | 91 | 94 | 100 | 90 | 99 | 100 | 94 | 59 | 98 | 59 | 100 | 98
